Consider 19 molecules from patent US8481732B2 (Incyte Corporation, priority 2009, dated 2013).

T1 sequence (Q9H3N8 whole entry): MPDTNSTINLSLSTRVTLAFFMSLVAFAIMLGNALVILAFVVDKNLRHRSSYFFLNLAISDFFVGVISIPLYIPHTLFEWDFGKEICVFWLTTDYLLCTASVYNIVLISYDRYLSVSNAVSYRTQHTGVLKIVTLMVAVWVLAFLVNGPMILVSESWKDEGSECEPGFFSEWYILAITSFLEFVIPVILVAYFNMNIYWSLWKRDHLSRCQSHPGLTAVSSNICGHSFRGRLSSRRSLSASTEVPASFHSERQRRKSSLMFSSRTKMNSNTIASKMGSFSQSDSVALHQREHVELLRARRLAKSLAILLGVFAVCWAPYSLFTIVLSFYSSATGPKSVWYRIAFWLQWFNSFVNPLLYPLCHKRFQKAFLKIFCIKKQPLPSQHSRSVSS

This assay has as its target T1, histamine H4 receptor (Homo sapiens, UniProt Q9H3N8).
T1 construct: expressed in transfected cells; host or cells: HEK293SFM cells (membrane preparation)
The experiment in a line: H4 Membrane Binding Assay (3H-Histamine displacement). The following applies: membranes of recombinant HEK293SFM cells, 10 nM 3H-Histamine, 1.5 hr at room temperature. In a few lines:
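Membranes from HEK293SFM cells expressing human H4 (also human H1–H3, mouse H4), prepared in ice-cold 50 mM Tris-HCl pH 7.5. [3H]-histamine displacement, nonspecific binding defined with 1000× unlabeled ligand. Bound radioactivity separated on PEI-treated GF/B filters and measured by liquid scintillation counting.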
Broadly, the IC50 is the concentration needed to halve the response being measured. Turning to `C[C@@H](NC(=O)c1ccc2c(N3CCN(C)CC3)nc(N)nc2c1)c1ccc2ccccc2c1` [Example 21, (R)-2-Amino-4-(4-methylpiperazin-1-yl)-N-[1-(naphthalen-2-yl)ethyl]quinazoline-7-carboxamide], the concentration for half-maximal inhibition (IC50) stood at 105 nM.

For `CN1CCN(c2cc(-c3ccc4c(c3)CN(C(=O)N[C@@H]3c5ccccc5C[C@@H]3O)CC4)nc(N)n2)CC1` [Example 87, 7-[2-Amino-6-(4-methylpiperazin-1-yl)pyrimidin-4-yl]-N-[(1R,2S)-2-hydroxy-2,3-dihydro-1H-inden-1-yl]-3,4-dihydroisoquinoline-2(1H)-carboxamide], the IC50 came out at 218 nM. Turning to `CN1CCN(c2cc(-c3ccc4c(c3)CN(C(=O)Nc3ccc(Cl)cc3)CC4)nc(N)n2)CC1` [Example 8, 7-[2-Amino-6-(4-methylpiperazin-1-yl)pyrimidin-4-yl]-N-(4-chlorophenyl)-3,4-dihydroisoquinoline-2(1H)-carboxamide], the IC50 amounted to 13.2 nM. In the case of `CN1CCN(c2cc(-c3ccc4c(c3)CN(C(=O)N3CCC(c5ccccc5)CC3)CC4)nc(N)n2)CC1` [Example 103, 4-(4-Methylpiperazin-1-yl)-6-{2-[(4-phenylpiperidin-1-yl)carbonyl]-1,2,3,4-tetrahydroisoquinolin-7-yl}pyrimidin-2-amine], the half-maximal inhibitory concentration (IC50) amounted to 84 nM. Regarding `CCOC(=O)N1CCC(OC(=O)N2CCc3ccc(-c4cc(N5CCN(C)CC5)nc(N)n4)cc3C2)CC1` [Example 116, 1-(Ethoxycarbonyl)piperidin-4-yl 7-[2-amino-6-(4-methylpiperazin-1-yl)pyrimidin-4-yl]-3,4-dihydroisoquinoline-2(1H)-carboxylate], the IC50 was 38 nM. For `CN1CCN(c2nc(N)nc3cc(C(=O)NC(Cc4cccc(Oc5cccc(C#N)c5)c4)C(=O)N(C)C)ccc23)CC1` (stereo not shown) [Example 174, 2-Amino-N-(3-(3-(3-cyanophenoxy)phenyl)-1-(dimethylamino)-1-oxopropan-2-yl)-4-(4-methylpiperazin-1-yl)quinazoline-7-carboxamide], the concentration for half-maximal inhibition (IC50) was found to be 23 nM. On to `COC(=O)c1ccc(COc2cccc(CNC(=O)c3ccc4c(N5CCN(C)CC5)nc(N)nc4c3)c2)cc1` [Example 193, Methyl 4-({3-[({[2-amino-4-(4-methylpiperazin-1-yl)quinazolin-7-yl]carbonyl}amino)methyl]phenoxy}methyl)benzoate], for which the IC50 amounted to 7.2 nM.

Consider `CC(Cc1ccc(OC2CCCC2)cc1)NC(=O)c1ccc2c(N3CCN(C)CC3)nc(N)nc2c1` (stereo not shown) [Example 143, 2-Amino-N-{2-[4-(cyclopentyloxy)phenyl]-1-methylethyl}-4-(4-methylpiperazin-1-yl)quinazoline-7-carboxamide], for which the 50% inhibitory concentration (IC50) is 37 nM. The result for `CCOC(=O)c1sc(Oc2cccc(CNC(=O)c3ccc4c(N5CCN(C)CC5)nc(N)nc4c3)c2)nc1C` [Example 185, Ethyl 2-{3-[({[2-amino-4-(4-methylpiperazin-1-yl)quinazolin-7-yl]carbonyl}amino)methyl]phenoxy}-4-methyl-1,3-thiazole-5-carboxylate] reads 8.4 nM; that for `CN1CCN(c2nc(N)nc3cc(C(=O)NC(Cc4cccc(Oc5ccccc5)c4)C(=O)N(C)C)ccc23)CC1` (stereo not shown) [Example 146, 2-Amino-N-[2-(dimethylamino)-2-oxo-1-(3-phenoxybenzyl)ethyl]-4-(4-methylpiperazin-1-yl)quinazoline-7-carboxamide], 65 nM; that for `CCO[C@H]1CCCC[C@H]1NC(=O)N1CCc2ccc(-c3cc(N4CCN(C)CC4)nc(N)n3)cc2C1` (relative stereo) [Example 85, 7-[2-Amino-6-(4-methylpiperazin-1-yl)pyrimidin-4-yl]-N-[(cis)-2-ethoxycyclohexyl]-3,4-dihydroisoquinoline-2(1H)-carboxamide], 57 nM.

`CN1CCN(c2nc(N)nc3cc(C(=O)N[C@@H](Cc4ccc(-c5cncc(C(F)(F)F)c5)cc4)C(=O)N(C)C)ccc23)CC1` [Example 161, 2-Amino-N-((1S)-2-(dimethylamino)-2-oxo-1-{4-[5-(trifluoromethyl)pyridin-3-yl]benzyl}ethyl)-4-(4-methylpiperazin-1-yl)quinazoline-7-carboxamide]: the IC50 was 31 nM. For the molecule `Cc1ccc(CNC(=O)c2ccc3c(N4CCN(C)CC4)nc(N)nc3c2)cc1Cl` [Example 36, 2-Amino-N-(3-chloro-4-methylbenzyl)-4-(4-methylpiperazin-1-yl)quinazoline-7-carboxamide], the IC50 was determined as 126 nM. The result for `CN1CCN(c2nc(N)nc3cc(C(=O)Nc4ccc(Oc5ccccc5)cc4)ccc23)CC1` [Example 35, 2-Amino-4-(4-methylpiperazin-1-yl)-N-(4-phenoxyphenyl)quinazoline-7-carboxamide] reads 287 nM; that for `CC(CC(=O)N1CCc2ccc(-c3cc(N4CCN(C)CC4)nc(N)n3)cc2C1)C(F)(F)F` (stereo not shown) [Example 62, 4-(4-Methylpiperazin-1-yl)-6-[2-(4,4,4-trifluoro-3-methylbutanoyl)-1,2,3,4-tetrahydroisoquinolin-7-yl]pyrimidin-2-amine], 24 nM; that for `CN1CCN(c2cc(-c3ccc4c(c3)CN(C(=O)CC3CCN(C(=O)c5ccccc5)CC3)CC4)nc(N)n2)CC1` [Example 73, 4-{2-[(1-Benzoylpiperidin-4-yl)acetyl]-1,2,3,4-tetrahydroisoquinolin-7-yl}-6-(4-methylpiperazin-1-yl)pyrimidin-2-amine], 357 nM. The result for `COc1ccc(Oc2cccc(CNC(=O)c3ccc4c(N5CCN(C)CC5)nc(N)nc4c3)c2)cc1` [Example 178, 2-Amino-N-[3-(4-methoxyphenoxy)benzyl]-4-(4-methylpiperazin-1-yl)quinazoline-7-carboxamide] reads 7.5 nM; that for `CN1CCN(c2nc(N)nc3cc(C(=O)NC(Cc4ccc(-c5ccccc5)s4)C(=O)N(C)C)ccc23)CC1` (stereo not shown) [Example 147, 2-Amino-N-{2-(dimethylamino)-2-oxo-1-[(5-phenyl-2-thienyl)methyl]ethyl}-4-(4-methylpiperazin-1-yl)quinazoline-7-carboxamide], 71 nM.

For `CN1CCN(c2nc(N)nc3cc(C(=O)NCc4ccc(Oc5ccccc5)cc4)ccc23)CC1` [Example 34, 2-Amino-4-(4-methylpiperazin-1-yl)-N-(4-phenoxybenzyl)quinazoline-7-carboxamide], the IC50 was 106 nM.
